# US8952024B2, “Herbicidal pyrimidone derivatives” (E I du Pont de Nemours and Company, priority 2009, dated 2015)
# Test system: winter barley (Hordeum vulgare)
# Test: Test B postemergence plant response
# Assay type: in vivo
# Settings: for Barley plant response rating (0 to 100 scale): 0 is no effect; for Barley plant response rating: scale 0 to 100
# How it was run: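 Plants at the 1- to 4-leaf stage (2 to 18 cm tall), grown in pots of peat moss/vermiculite medium with wetting agent and starter nutrients, received postemergence applications of test chemicals. After 13 to 15 days in a greenhouse, injury was rated visually against untreated controls on a 0 (no effect) to 100 (complete control) scale.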
# [1] = 31 g ai/ha, postemergence, scale 0 to 100, 0 is no effect, 100 is complete control
# [2] = 62 g ai/ha, postemergence, 100 is complete control, 13 to 15 days
# [3] = Postemergence, 125 g ai/ha, visual rating after 13 to 15 days, scale 0 (no effect) to 100 (complete control)
# [4] = Postemergence, 250 g ai/ha, scale 0 to 100 (0 no effect, 100 complete control)
# [5] = Postemergence, 125 g ai/ha, scale 0 to 100 (0 no effect, 100 complete control)
# [6] = Postemergence, 31 g ai/ha, 0 to 100 scale (0 no effect, 100 complete control)
# [7] = Postemergence, 250 g ai/ha, scale 0 to 100 (0 no effect, 100 complete control), 13 to 15 days
# [8] = Postemergence, 62 g ai/ha, scale 0 to 100 (0 no effect, 100 complete control)
compound,measurement,setting,value
CC(C)CC(=O)OC1=C(C(=O)c2cnc(-c3ccccc3)n(-c3ccccc3)c2=O)C(=O)CCC1 [Compound 83],"Plant response rating, Barley",[1],0
same,Barley plant response rating (0 to 100 scale),[2],5
same,"Plant response rating, Barley",[3],5
same,"Plant response rating, Barley",[4],5
CCCn1c(-c2ccc(F)cc2)ncc(C(=O)C2=C(O)CCCC2=O)c1=O [Compound 102],"Plant response rating, Barley",[1],0
same,Barley plant response rating (0 to 100 scale),[2],10
same,"Plant response rating, Barley",[5],30
same,"Plant response rating, Barley",[4],60
O=C1CCCC(O)=C1C(=O)c1cnc(-c2ccccc2Br)n(-c2ccccc2)c1=O [Compound 71],"Plant response rating, Barley",[1],0
same,Barley plant response rating (0 to 100 scale),[2],0
same,"Plant response rating, Barley",[3],0
same,"Plant response rating, Barley",[4],5
CCCCCn1c(-c2ccccc2)ncc(C(=O)C2=C(O)CCCC2=O)c1=O [Compound 89],"Plant response rating, Barley",[1],0
same,Barley plant response rating (0 to 100 scale),[2],5
same,"Plant response rating, Barley",[3],10
same,"Plant response rating, Barley",[4],20
O=C1CCCC(OC(=O)C2CC2)=C1C(=O)c1cnc(-c2ccccc2)n(-c2ccccc2)c1=O [Compound 88],"Plant response rating, Barley",[1],30
same,Barley plant response rating (0 to 100 scale),[2],30
same,"Plant response rating, Barley",[3],40
same,"Plant response rating, Barley",[4],80
CCCn1c(-c2cc(F)cc(F)c2)ncc(C(=O)C2=C(O)CCCC2=O)c1=O [Compound 152],Barley plant response rating (0 to 100 scale),[2],45
same,"Plant response rating, Barley",[6],10
same,"Plant response rating, Barley",[5],85
same,"Plant response rating, Barley",[7],90
COCCn1c(-c2cccc(F)c2)ncc(C(=O)C2=C(O)CCCC2=O)c1=O [Compound 123],Barley plant response rating (0 to 100 scale),[2],10
same,"Plant response rating, Barley",[6],5
same,"Plant response rating, Barley",[5],25
same,"Plant response rating, Barley",[4],50
CCCCn1c(-c2cc(F)cc(F)c2)ncc(C(=O)C2=C(O)CCCC2=O)c1=O [Compound 121],"Plant response rating, Barley",[1],0
same,Barley plant response rating (0 to 100 scale),[2],5
same,"Plant response rating, Barley",[5],5
same,"Plant response rating, Barley",[4],10
CCn1c(-c2ccccc2)ncc(C(=O)C2=C(O)C3CCC(C3)C2=O)c1=O (centres unmarked) [Compound 239],"Plant response rating, Barley",[6],0
same,"Plant response rating, Barley",[8],0
same,"Plant response rating, Barley","Postemergence, 125 g ai/ha, scale 0 (no effect) to 100 (complete control), 13 to 15 days",5
same,"Plant response rating, Barley",[7],5
"COCCCn1c(-c2cccc(C)c2)ncc(C(=O)C2=C(O)CCCC2=O)c1=O [Compound 118, 5-[(2-hydroxy-6-oxo-1-cyclohexane-1-yl)carbonyl]-3-(3-methoxypropyl)-2-(3-methylphenyl)-4(3H)-pyrimidinone]","Plant response rating, Barley",[1],0
same,Barley plant response rating (0 to 100 scale),[2],0
same,"Plant response rating, Barley",[5],0
same,"Plant response rating, Barley",[4],0
COCCCn1c(-c2cccc(Br)c2)ncc(C(=O)C2=C(O)CCCC2=O)c1=O [Compound 140],Barley plant response rating (0 to 100 scale),[2],0
same,"Plant response rating, Barley",[6],0
same,"Plant response rating, Barley",[5],0
same,"Plant response rating, Barley",[7],0
COCC(C)n1c(-c2ccccc2)ncc(C(=O)C2=C(O)CCCC2=O)c1=O (centres unmarked) [Compound 107],"Plant response rating, Barley",[1],0
same,Barley plant response rating (0 to 100 scale),[2],5
same,"Plant response rating, Barley",[5],25
same,"Plant response rating, Barley",[4],30
COCCn1c(-c2cccc(Cl)c2)ncc(C(=O)C2=C(O)CCCC2=O)c1=O [Compound 147],Barley plant response rating (0 to 100 scale),[2],0
same,"Plant response rating, Barley",[6],0
same,"Plant response rating, Barley",[5],0
same,"Plant response rating, Barley",[7],0
O=C(C1=C(O)C2CCC(C2)C1=O)c1cnc(-c2ccsc2)n(CC2CCCO2)c1=O (centres unmarked) [Compound 229],"Plant response rating, Barley",[6],0
same,"Plant response rating, Barley",[8],0
same,"Plant response rating, Barley",[5],5
same,"Plant response rating, Barley",[7],25
"COc1ccc(-n2c(-c3ccccc3)ncc(C(=O)C3=C(O)CCCC3=O)c2=O)cc1 [Compound 4, 5-[(2-hydroxy-6-oxo-cyclohexen-1-yl)carbonyl]-3-(4-methoxyphenyl)-2-phenyl-4(3H)-pyrimidinone]",plant injury at 31 g/ha,"Hordeum vulgare, post-emergence, Postemergence, 31 g ai/ha, scale 0 to 100 (0 no effect, 100 complete control), read-out: Plant response rating, Barley",0%
same,plant injury at 62 g/ha,"Hordeum vulgare, post-emergence, Postemergence, 62 g ai/ha, scale 0 (no effect) to 100 (complete control), 13 to 15 days, read-out: Plant response rating, Barley",0%
same,plant injury at 125 g/ha,"Hordeum vulgare, post-emergence, Postemergence, 125 g ai/ha, scale 0 to 100 (0 no effect, 100 complete control), 13 to 15 days, read-out: Plant response rating, Barley",0%
same,Barley plant response rating,"Postemergence, 250 g ai/ha",10
Cc1ccc(-c2ncc(C(=O)C3=C(O)CCCC3=O)c(=O)n2-c2ccccc2)cc1 [Compound 80],"Plant response rating, Barley",[1],15
same,Barley plant response rating (0 to 100 scale),[2],30
same,"Plant response rating, Barley",[3],30
same,"Plant response rating, Barley",[4],75
CC(C)n1c(-c2ccccc2)ncc(C(=O)C2=C(O)CCCC2=O)c1=O [Compound 95],"Plant response rating, Barley",[1],0
same,Barley plant response rating (0 to 100 scale),[2],0
same,"Plant response rating, Barley",[3],0
same,"Plant response rating, Barley",[4],0
Cc1ccc(F)cc1-n1c(-c2cccc(Cl)c2)ncc(C(=O)C2=C(O)CCCC2=O)c1=O [Compound 157],Barley plant response rating (0 to 100 scale),[2],15
same,"Plant response rating, Barley",[6],5
same,"Plant response rating, Barley",[5],30
same,"Plant response rating, Barley",[7],30
Cc1ccc(-n2c(-c3ccccc3)ncc(C(=O)C3=C(O)CCCC3=O)c2=O)cc1 [Compound 8],"Plant response rating, Barley","Postemergence, 31 g ai/ha, scale 0 to 100 (0 no effect, 100 complete control)",0
same,"Plant response rating, Barley","Postemergence, 62 g ai/ha, scale 0 (no effect) to 100 (complete control), 13 to 15 days",0
same,"Plant response rating, Barley","Postemergence, 125 g ai/ha, scale 0 to 100 (0 no effect, 100 complete control), 13 to 15 days",5
same,Barley plant response rating,"Postemergence, 250 g ai/ha",20
CCCCn1c(-c2ccccc2)ncc(C(=O)C2=C(O)CCCC2=O)c1=O [Compound 86],"Plant response rating, Barley",[1],30
same,Barley plant response rating (0 to 100 scale),[2],40
same,"Plant response rating, Barley",[3],60
same,"Plant response rating, Barley",[4],65
Cc1ccccc1-n1c(-c2cc(F)cc(F)c2)ncc(C(=O)C2=C(O)CCCC2=O)c1=O [Compound 159],"Plant response rating, Barley","8 g ai/ha, Postemergence, 0 to 100 scale",0
same,"Plant response rating, Barley","16 g ai/ha, Postemergence, 0 to 100 scale",20
same,Barley plant response rating (0 to 100 scale),[2],50
same,"Plant response rating, Barley",[6],20
CCCn1c(-c2cccc(C(F)(F)F)c2)ncc(C(=O)C2=C(O)CCCC2=O)c1=O [Compound 155],Barley plant response rating (0 to 100 scale),[2],30
same,"Plant response rating, Barley",[6],30
same,"Plant response rating, Barley",[5],45
same,"Plant response rating, Barley",[7],85
CCCn1c(-c2cccc(Br)c2)ncc(C(=O)C2=C(O)CCCC2=O)c1=O [Compound 141],Barley plant response rating (0 to 100 scale),[2],0
same,"Plant response rating, Barley",[6],0
same,"Plant response rating, Barley",[5],5
same,"Plant response rating, Barley",[7],5
